Data: ChEMBL document CHEMBL1156928, “Design of novel nicotinamides as potent and selective monoamine oxidase a inhibitors” (Bioorg Med Chem, 2010)

What was measured:
[1] = target: T1, Amine oxidase [flavin-containing] B (Rattus norvegicus, UniProt P19643); assay: Inhibition of MAOB in Sprague-Dawley rat brain mitochondria using kynuramine substrate by fluorimetry
T1 sequence (P19643 whole entry): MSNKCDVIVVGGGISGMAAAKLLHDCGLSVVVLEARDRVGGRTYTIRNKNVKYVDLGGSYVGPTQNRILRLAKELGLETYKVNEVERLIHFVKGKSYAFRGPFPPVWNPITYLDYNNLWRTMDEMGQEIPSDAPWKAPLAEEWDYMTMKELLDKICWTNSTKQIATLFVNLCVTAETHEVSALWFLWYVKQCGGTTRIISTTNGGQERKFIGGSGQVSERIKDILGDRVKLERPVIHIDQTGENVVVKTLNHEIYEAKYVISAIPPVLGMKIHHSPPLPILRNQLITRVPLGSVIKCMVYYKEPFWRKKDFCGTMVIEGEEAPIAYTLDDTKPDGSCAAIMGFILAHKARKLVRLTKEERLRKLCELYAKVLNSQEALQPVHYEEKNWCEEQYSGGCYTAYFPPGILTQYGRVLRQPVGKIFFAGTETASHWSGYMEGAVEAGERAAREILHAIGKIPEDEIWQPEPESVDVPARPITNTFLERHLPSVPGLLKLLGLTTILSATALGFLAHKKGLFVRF

[2] = target: T2, Amine oxidase [flavin-containing] A (Rattus norvegicus, UniProt P21396); assay: Inhibition of MAOA in Sprague-Dawley rat brain mitochondria using kynuramine substrate by fluorimetry
T2 sequence (P21396 whole entry): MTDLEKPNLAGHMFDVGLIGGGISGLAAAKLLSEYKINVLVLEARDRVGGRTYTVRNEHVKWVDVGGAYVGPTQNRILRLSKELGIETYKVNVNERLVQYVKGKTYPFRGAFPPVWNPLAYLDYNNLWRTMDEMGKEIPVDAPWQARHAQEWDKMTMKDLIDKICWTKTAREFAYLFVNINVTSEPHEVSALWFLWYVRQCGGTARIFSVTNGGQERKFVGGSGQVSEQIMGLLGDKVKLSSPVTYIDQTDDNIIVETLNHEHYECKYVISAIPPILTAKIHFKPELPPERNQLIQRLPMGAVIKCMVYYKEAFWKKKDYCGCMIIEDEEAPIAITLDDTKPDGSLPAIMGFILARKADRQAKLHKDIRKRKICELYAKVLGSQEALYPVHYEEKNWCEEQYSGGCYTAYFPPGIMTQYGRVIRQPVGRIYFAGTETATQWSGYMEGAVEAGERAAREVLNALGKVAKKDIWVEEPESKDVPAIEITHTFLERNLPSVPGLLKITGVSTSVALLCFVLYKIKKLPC

| IC50 [1] | IC50 [2] | SMILES |
| --- | --- | --- |
| 74 µM | 0.75 µM | O=C(NCCN1CCOCC1)c1cnccc1Cl |
| > 100 µM | 86 µM | Cc1ccc(C(=O)NCCN2CCOCC2)cn1 |
| > 100 µM | 0.43 µM | O=C(NCCN1CCOCC1)c1ccc(=O)[nH]c1 |
| 53 µM | 7.5 µM | O=C(NCCCN1CCOCC1)c1cnccc1Cl |
| > 100 µM | 45 µM | O=C(NCCN1CCOCC1)c1cccnc1O |
| 45 µM | 0.1 µM | O=C(NCCCN1CCOCC1)c1cnc(Cl)c(Cl)c1 |
| 26 µM | 0.045 µM | O=C(NCCN1CCOCC1)c1cnc(O)c(Cl)c1 |
| > 100 µM | > 100 µM | Cc1ccc(C(=O)NCCCN2CCOCC2)c(Cl)n1 |
| 55 µM | 26 µM | O=C(NCCN1CCOCC1)c1cncc(Br)c1 |
| > 100 µM | 68 µM | O=C(NCCN1CCOCC1)c1cccnc1 |
| > 100 µM | > 100 µM | Cc1ccc(C(=O)NCCCN2CCOCC2)cn1 |
| 65 µM | 23 µM | O=C(NCCCN1CCOCC1)c1cncc(Br)c1 |
| > 100 µM | > 100 µM | O=C(NCCCN1CCOCC1)c1cccnc1 |
| > 100 µM | > 100 µM | O=C(NCCCN1CCOCC1)c1ccc[nH]c1=O |

Further lines, the compound ahead of its results:

| SMILES | IC50 [1] | IC50 [2] |
| --- | --- | --- |
| O=C(NCCN1CCOCC1)c1ccc(Cl)nc1 | 34 µM | 0.18 µM |
| Cc1ccc(C(=O)NCCN2CCOCC2)c(Cl)n1 | > 100 µM | 28 µM |
| O=C(NCCCN1CCOCC1)c1ccc(O)nc1 | > 100 µM | 56 µM |
| O=C(NCCN1CCOCC1)c1cccnc1Br | 0.32 µM | 8.5 µM |
| O=C(NCCN1CCOCC1)c1ccc(Cl)cc1 [MOCLOBEMIDE] | > 100 µM |  |
| O=C(NCCN1CCOCC1)c1ccc(F)nc1 | > 100 µM | 15 µM |
| O=C(NCCN1CCOCC1)c1cnc(Cl)c(Cl)c1 | 48 µM | 0.084 µM |
| O=C(NCCN1CCOCC1)c1cccnc1Cl | 1.8 µM | 2.6 µM |
| O=C(NCCCN1CCOCC1)c1ccc(Cl)nc1 | 75 µM | 0.38 µM |
| O=C(NCCCN1CCOCC1)c1cccnc1Br | 1.9 µM | 35 µM |
| O=C(NCCCN1CCOCC1)c1cccnc1Cl | 6.5 µM | 9.4 µM |
| O=C(NCCCN1CCOCC1)c1c[nH]c(=O)c(Cl)c1 | 82 µM | 12 µM |
| O=C(NCCCN1CCOCC1)c1ccc(F)nc1 | > 100 µM | 80 µM |
